# In patent publication US10517863B2, “Trilobine and its natural analogs for use as a drug” (PIERRE FABRE MEDICAMENT, priority 2015, dated 2019):
# Tested on: P15 promoter in leukaemia KG1 cells
# Assay: P15 (CDKN2B) promoter demethylation, bisulfite PCR cloning-sequencing
# Format: cell-based, human
# Settings: after 3 days, at 0.32 μM
# Method: Cancer cell lines (colon HCT116 or leukaemia KG1) were treated with the compounds as indicated in the Data Tables and then analysed as following.
# DNA was isolated from cultured cells using the DNeasy Blood and Tissue Kit according to the manufacturer's specifications (Qiagen). DNA bisulphite conversion was performed on 2 μg of DNA using the EZ DNA Methylation-Gold Kit according to the manufacturer's specifications (Zymo Research) and bisulfited DNA was eluted with 10 μL of water. Two different techniques were used to analyse the DNA methylation profile after bisulfite conversion of genomic DNA: (A) cloning and sequencing or (B) COBRA. The primers for each promoter are specified in the Table 3.
# Sequencing of bisulfite-treated DNA allowing resolution of the methylation state of every cytosine in the target sequence, at single molecule resolution, is considered as the “gold standard” for DNA methylation analysis.
# Bisulfite-specific primers with a minimum length of 18 bp were designed using Primer 3 program. […]
# PCR amplicons were cloned with the StrataClone Ultra Blunt PCR Cloning Kit (Agilent Technologies), according to the manufacturers' instructions and up to 24 clones were picked for sequencing. […] Electrophoregram files and methylation signals at a given CpG site were quantified using the BISMA software as described in the literature (Rohde et al. BMC Bioinformatics 2010, 11, 230).
compound,measurement,value
"COc1ccc2cc1Oc1ccc(cc1)C[C@@H]1NCCc3cc(OC)c4c(c31)Oc1cc3c(cc1O4)CCN(C)[C@H]3C2 [Compound 1, Trilobine]",Demethylation (COBRA) P15/KG1,−25% after 3 days
